According to ChEMBL document CHEMBL4385594, “4(3H)-Quinazolinone derivatives: Promising antibacterial drug leads” (Eur J Med Chem, 2019):
In brackets after ≈: the same amount, converted by molar mass. One block for each compound: values may come before it.

Columns and labels:
Escherichia coli [1] = test: Antibacterial activity against Escherichia coli assessed as diameter of zone inhibition at 100 ppm by disc diffusion method; assay type: functional; conditions: read-out: DIZ
Staphylococcus aureus [2] = test: Antibacterial activity against Staphylococcus aureus assessed as diameter of zone inhibition at 100 ppm by disc diffusion method; assay type: functional; conditions: read-out: DIZ
Staphylococcus aureus [3] = test: Antibacterial activity against Staphylococcus aureus assessed as reduction in bacterial cell growth at 0.03 to 64 ug/ml incubated for 16 to 18 hrs by CLSI broth dilution method; assay type: functional
Suillus luteus = test: Antifungal activity against Suillus luteus assessed as reduction in fungal cell growth; assay type: functional
MCF7 = test: Cytotoxicity against human MCF7 cells assessed as reduction in cell viability at 0.1 to 100 uM by MTT assay; assay type: functional, cell-based
Staphylococcus aureus [4] = test: Antibacterial activity against Staphylococcus aureus; assay type: functional
Staphylococcus aureus [5] = test: Antibacterial activity against Staphylococcus aureus assessed as inhibition zone; assay type: functional
Staphylococcus aureus [6] = test: Antibacterial activity against Staphylococcus aureus ATCC 25923 assessed as reduction in bacterial cell growth at 0.03 to 64 ug/ml incubated for 16 to 18 hrs by CLSI broth dilution method; assay type: functional
Escherichia coli [7] = test: Antibacterial activity against Escherichia coli ATCC 25922 assessed as reduction in bacterial cell growth at 0.03 to 64 ug/ml incubated for 16 to 18 hrs by CLSI broth dilution method; assay type: functional
Pseudomonas aeruginosa [8] = test: Antibacterial activity against Pseudomonas aeruginosa ATCC 27853 assessed as reduction in bacterial cell growth at 0.03 to 64 ug/ml incubated for 16 to 18 hrs by CLSI broth dilution method; assay type: functional
Enterococcus faecalis = test: Antibacterial activity against Enterococcus faecalis ATCC 29212 assessed as reduction in bacterial cell growth at 0.03 to 64 ug/ml incubated for 16 to 18 hrs by CLSI broth dilution method; assay type: functional
Acinetobacter baumannii [9] = test: Antibacterial activity against multidrug-resistant Acinetobacter baumannii assessed as reduction in bacterial cell growth incubated for 24 hrs by broth dilution method; assay type: functional
[10] = Cytotoxicity against human HepG2 cells assessed as reduction in cell viability at 0 to 50 uM incubated for 48 hrs by MTT assay; assay type: cell-based; conditions: read-out: LD50
Acinetobacter baumannii [11] = test: Antibacterial activity against Acinetobacter baumannii 1646 infected in mouse model of peritonitis assessed as increase in survival rate at 2 mg/kg, ip dosed at 1 hr post infection (reference value: 66%); assay type: functional; conditions: Acinetobacter baumannii, 1646, ip
Staphylococcus aureus [12] = test: Antibacterial activity against Staphylococcus aureus NCIM 2901 assessed as reduction in bacterial cell growth at 0.03 to 64 ug/ml incubated for 16 to 18 hrs by CLSI broth microdilution method; assay type: functional
Bacillus subtilis = test: Antibacterial activity against Bacillus subtilis MTCC 441 assessed as reduction in bacterial cell growth at 0.03 to 64 ug/ml incubated for 16 to 18 hrs by CLSI broth microdilution method; assay type: functional
Pseudomonas aeruginosa [13] = test: Antibacterial activity against Pseudomonas aeruginosa NCIM 2036 assessed as reduction in bacterial cell growth at 0.03 to 64 ug/ml incubated for 16 to 18 hrs by CLSI broth microdilution method; assay type: functional

Compound: CN(C)[C@@H]1C(O)=C(C(N)=O)C(=O)[C@@]2(O)C(O)=C3C(=O)c4c(O)cccc4[C@@](C)(O)[C@H]3C[C@@H]12 [TETRACYCLINE]
zone of inhibition at 100 ppm (Escherichia coli [1]): 6 to 27 mm
zone of inhibition at 100 ppm (Staphylococcus aureus [2]): 12 to 24 mm

Compound: C#CCOc1cccc(-n2c(/C=C/c3ccc(Cl)cc3)nc3ccccc3c2=O)c1
MIC (Staphylococcus aureus [3]): 32 µg/mL (≈ 77.5 µM)

Compound: N#Cc1ccc(/C=C/c2nc3ccccc3c(=O)n2-c2cccc(OCc3cn(Cc4ccc(Br)cc4)nn3)c2)cc1
MIC (Staphylococcus aureus [3]): 16 µg/mL (≈ 26 µM)

Compound: CCCCNC(=O)Oc1ccc(-n2c(/C=C/c3ccc(Cl)cc3)nc3cc(Cl)ccc3c2=O)cc1
MIC (Suillus luteus): 125 µg/mL (≈ 246 µM)

Compound: Cn1cc[n+](C(Cn2cnc3ccc(Cl)cc3c2=O)c2cc3cc(Br)ccc3o2)c1 (centres undefined)
IC50 (MCF7): 570 to 1000 nM

Compound: C#Cc1cccc(-n2c(/C=C/c3ccc(C#N)cc3)nc3ccccc3c2=O)c1
MIC (Staphylococcus aureus [3]): 0.5 µg/mL (≈ 1.34 µM)

Compound: N#Cc1ccc(/C=C/c2nc3ccccc3c(=O)n2-c2ccc(OCc3cn(Cc4ccc(Br)cc4)nn3)cc2)cc1
MIC (Staphylococcus aureus [3]): > 64 µg/mL

Compound: N#Cc1ccc(/C=C/c2nc3ccccc3c(=O)n2-c2cccc(OCc3cn(-c4ccc(C(F)(F)F)cc4)nn3)c2)cc1
MIC (Staphylococcus aureus [3]): 4 µg/mL (≈ 6.77 µM)

Compound: CNc1nc(NCc2ccccc2)nc2cc(C)ccc12
MIC (Acinetobacter baumannii [9]): 0.5 µM (≈ 0.139 µg/mL)
CC50 at 48 h [10]: 23000 nM
survival at 2 mg/kg (Acinetobacter baumannii [11]): 90%

Compound: Cn1cc[n+](C(Cn2cnc3ccccc3c2=O)c2cc3cc(Br)ccc3o2)c1 (centres undefined)
IC50 (MCF7): 570 to 1000 nM

Compound: CNc1nc(NCc2ccccc2)nc2cc(Cl)ccc12
MIC (Acinetobacter baumannii [9]): 0.5 µM (≈ 0.149 µg/mL)
CC50 at 48 h [10]: 23000 nM
survival at 2 mg/kg (Acinetobacter baumannii [11]): 90%

Compound: COc1ccc2ncn(CC(c3cc4ccccc4o3)[n+]3ccn(C)c3)c(=O)c2c1 (centres undefined)
IC50 (MCF7): 570 to 1000 nM

Compound: N#Cc1ccc(/C=C/c2nc3ccccc3c(=O)n2-c2cccc(C#N)c2)cc1
MIC (Staphylococcus aureus [3]): 0.5 µg/mL (≈ 1.34 µM)

Compound: N#Cc1ccc(/C=C/c2nc3ccccc3c(=O)n2-c2cccc(OCc3cn(-c4cccc(C(=O)O)c4)nn3)c2)cc1
MIC (Staphylococcus aureus [3]): 4 µg/mL (≈ 7.06 µM)

More lines, main results first:

MIC (Staphylococcus aureus [3]): 4 µg/mL (≈ 8.69 µM)
Compound: N#Cc1ccc(/C=C/c2nc3ccccc3c(=O)n2-c2cccc(C(=O)N3CCCCC3)c2)cc1

MIC (Staphylococcus aureus [4]): 32 µg/mL (≈ 104 µM)
Compound: Cc1ccc2c(c1)c(=O)n(-c1ccccc1)c1n[nH]c(=S)n21
inhibition zone (IZ) (Staphylococcus aureus [5]): 17 mm

MIC (Staphylococcus aureus [3]): 0.5 µg/mL (≈ 0.932 µM)
Compound: Cc1cccc(-n2cc(COc3cccc(-n4c(/C=C/c5ccc(C#N)cc5)nc5ccccc5c4=O)c3)nn2)c1

MIC (Staphylococcus aureus [4]): 32 µg/mL (≈ 90.8 µM)
Compound: Cc1ccc2c(c1)c(=O)n(-c1ccccc1)c1nnc(-c3ccccc3)n21
inhibition zone (IZ) (Staphylococcus aureus [5]): 17 mm

MIC (Staphylococcus aureus [3]): 0.5 µg/mL (≈ 1.16 µM)
Compound: N#Cc1ccc(/C=C/c2nc3ccccc3c(=O)n2-c2cccc(C(=O)NC3CC3)c2)cc1

MIC (Staphylococcus aureus [6]): 1 to 8.5 µg/mL (≈ 1.69 to 14.4 µM)
MIC (Escherichia coli [7]): 1 to 8.5 µg/mL (≈ 1.69 to 14.4 µM)
MIC (Pseudomonas aeruginosa [8]): 1 to 8.5 µg/mL (≈ 1.69 to 14.4 µM)
MIC (Enterococcus faecalis): 1 to 8.5 µg/mL (≈ 1.69 to 14.4 µM)
Compound: O=c1c2c(Br)cc(Br)cc2nc(-c2ccccc2)n1-c1nc2ccc(Br)cc2s1

MIC (Staphylococcus aureus [12]): 1.56 µg/mL (≈ 4.21 µM)
MIC (Bacillus subtilis): 1.56 µg/mL (≈ 4.21 µM)
MIC (Pseudomonas aeruginosa [13]): 1.56 µg/mL (≈ 4.21 µM)
Compound: Cc1ccccc1NC(=O)Nn1c(-c2ccccc2)nc2ccccc2c1=O

MIC (Staphylococcus aureus [3]): 4 µg/mL (≈ 8.96 µM)
Compound: N#Cc1ccc(/C=C/c2nc3ccccc3c(=O)n2-c2cccc(C(=O)N3CCCC3)c2)cc1

MIC (Staphylococcus aureus [3]): 0.25 µg/mL (≈ 0.62 µM)
Compound: C#CCOc1cccc(-n2c(/C=C/c3ccc(C#N)cc3)nc3ccccc3c2=O)c1

MIC (Staphylococcus aureus [3]): > 64 µg/mL
Compound: Cc1nc2ccccc2c(=O)n1-c1cccc(C(=O)NC2CC2)c1

MIC (Staphylococcus aureus [3]): 0.5 µg/mL (≈ 0.925 µM)
Compound: N#Cc1ccc(/C=C/c2nc3ccccc3c(=O)n2-c2cccc(OCc3cn(-c4cccc(F)c4)nn3)c2)cc1

MIC (Staphylococcus aureus [3]): 8 µg/mL (≈ 18.7 µM)
Compound: N#Cc1ccc(/C=C/c2nc3cccc(Cl)c3c(=O)n2-c2cccc(C(=O)O)c2)cc1

MIC (Staphylococcus aureus [6]): 1.2 to 9 µg/mL (≈ 2.19 to 16.4 µM)
MIC (Escherichia coli [7]): 1.2 to 9 µg/mL (≈ 2.19 to 16.4 µM)
MIC (Pseudomonas aeruginosa [8]): 1.2 to 9 µg/mL (≈ 2.19 to 16.4 µM)
MIC (Enterococcus faecalis): 1.2 to 9 µg/mL (≈ 2.19 to 16.4 µM)
Compound: O=c1c2c(Br)cc(Br)cc2nc(-c2ccccc2)n1-c1nc2cc(Cl)ccc2s1

MIC (Staphylococcus aureus [3]): 8 µg/mL (≈ 17.3 µM)
Compound: N#Cc1ccc(/C=C/c2nc3ccccc3c(=O)n2-c2cccc(C(=O)N3CCOCC3)c2)cc1

MIC (Staphylococcus aureus [3]): 0.5 µg/mL (≈ 0.812 µM)
Compound: N#Cc1ccc(/C=C/c2nc3ccccc3c(=O)n2-c2cccc(OCc3cn(Cc4cccc(Br)c4)nn3)c2)cc1
